Here are results for four compounds from patent US8278322.

Read-outs that look alike come from different tables or passages of the source.

Where the note is “from C=CCC(C)(C)COC(=O)N[C@H](C(=O)N1C[C@H](Oc2nccc3ccc(C=C)cc23)C[C@H]1C(=O)OCC)C1CCCC1, rcm bond, Zhan 1B, DCE, 2.88 mM, 70.0 °C, 3.0 h”, `CCOC(=O)[C@@H]1C[C@@H]2CN1C(=O)[C@H](C1CCCC1)NC(=O)OCC(C)(C)C/C=C/c1ccc3ccnc(c3c1)O2` yielded a ring closure, yield of all isomers of 83%.
Where the note is “from C=CCCCOC(=O)N[C@@H](CCCC)C(=O)N1C[C@H](Oc2nccc3ccc(C=C)cc23)C[C@H]1C(=O)OCC, rcm bond, Zhan Catalyst I (RC-301), dichloro(5-chloro-2-isopropoxybenzylidene)(1,3-dimesitylimidazolidin-2-ylidene)ruthenium, 1,2-dichloroethane, 7.4 mM, 80.0 °C, 2.0 h”, `CCCC[C@@H]1NC(=O)OCCCC=Cc2ccc3ccnc(c3c2)O[C@@H]2C[C@@H](C(=O)OCC)N(C2)C1=O` showed a ring closure, yield of all isomers of 63.5%.
`CCOC(=O)[C@@H]1C[C@@H]2CN1C(=O)[C@H](C(C)(C)C)NC(=O)OCCCC#Cc1ccc3ccnc(c3c1)O2` came in with a ring closure, yield of all isomers (from CCOC(=O)[C@@H]1C[C@@H](Oc2nccc3ccc(C#CCCCOC(=O)N[C@H](C(=O)O)C(C)(C)C)cc23)CN1C(=O)OC(C)(C)C, amide bond, HATU, DCM, 3.7 mM, 20.0 h, 2 steps) of 14.5%.
The compound `C=C1CC(C)(C)COC(=O)N[C@@H](C2CCCCC2)C(=O)N2C[C@@H](C[C@H]2C(=O)OCC)Oc2nccc3cc(OC)c1cc23` registered a ring closure, yield of all isomers (from C=CCC(C)(C)COC(=O)N[C@H](C(=O)N1C[C@H](Oc2nccc3cc(OC)c(Br)cc23)C[C@H]1C(=O)OCC)C1CCCCC1, cc_pd bond, PdCl2(dppf), ethanol, 66.4 mM, 90.0 °C, 19.0 h) of 35.5%.
